For this assay, the target named is T1, h5-HT5A receptor (Homo sapiens, UniProt P47898).
T1 construct: expressed in transfected cells
In words: h5-HT5A-[3H]5-CT binding assay. As to conditions: membranes of HEK293 cells expressing h5-HT5A; 2.5 nM [3H]5-CT; read-out: Binding affinity 5-HT5A (Ki). The procedure: 1. h5-HT5A-[^3H]5-CT Binding Assay
Membranes of HEK293 cells which permanently express the h5-HT5A receptor gene were incubated in 100 mM tris-HCl buffer (pH 7.7) containing 1 mM EDTA, in the presence of 2.5 nM [^3H]5-CT (total volume 600 μL). The total binding is defined as the binding that is observed when the membranes are incubated in the presence of only the radioligand. The inhibition induced by the compound is determined by incubation of cell membranes in the presence of the radioligand and various concentrations of the compound of interest. Nonspecific binding is defined as the [^3H]5-CT binding obtained by incubation of the membranes, the same as for the total binding, but in the presence of 10 μM methiothepine. Following incubation for 75 min at 30° C., the membrane suspension was filtered through a GF/B-Filter coated with 0.03% PEI, using a Skatron® harvesting system. The residual radioactivity in the filter was quantified by liquid scintillation counting.
Various concentrations of the test substances were used in both assays, and the Ki or IC50 values were determined.

Where a name gives a salt, the structure may show the parent alone.

T1 sequence (P47898 whole entry): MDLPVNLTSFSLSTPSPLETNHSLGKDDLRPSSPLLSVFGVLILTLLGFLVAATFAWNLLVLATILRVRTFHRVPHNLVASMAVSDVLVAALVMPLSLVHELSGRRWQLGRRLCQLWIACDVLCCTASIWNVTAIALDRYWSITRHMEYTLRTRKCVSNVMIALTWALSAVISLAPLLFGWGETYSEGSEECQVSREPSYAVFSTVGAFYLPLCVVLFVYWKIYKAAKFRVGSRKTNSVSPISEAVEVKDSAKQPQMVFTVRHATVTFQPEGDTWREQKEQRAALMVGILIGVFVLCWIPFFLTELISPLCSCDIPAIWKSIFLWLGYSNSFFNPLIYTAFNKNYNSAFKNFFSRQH

As a reminder, the Ki is a measure of affinity in units of concentration, obtained from inhibition or displacement. On to `COc1ccccc1Cn1cc(-c2ccc(C)o2)nc1N` [Example 36, 1-(2-Methoxybenzyl)-4-(5-methylfuran-2-yl)-1H-imidazole-2-ylamine], for which the Ki is less than 600 nM.
Consider `COc1cccc(Cl)c1Cn1cc(-c2cccs2)nc1N` [Example 37, 1-(2-Chloro-6-methoxybenzyl)-4-thiophene-2-yl-1H-imidazole-2-ylamine], for which the Ki was less than 600 nM.
Regarding `COc1ccccc1Cn1cc(-c2ccc(C)s2)nc1N` [Example 38, 1-(2-Methoxybenzyl)-4-(5-methylthiophene-2-yl)-1H-imidazole-2-ylamine], the inhibition constant (Ki) was less than 600 nM.
On to `COc1ccccc1Cn1cc(-c2ccc(C(C)C)cc2)nc1N` [Example 39, 4-(4-Isopropylphenyl)-1-(2-methoxybenzyl)-1H-imidazole-2-ylamine], for which the inhibition constant Ki is less than 600 nM.
For the compound `COc1cccc(OC)c1Cn1cc(-c2ccc(C)c(C)c2)nc1N` [Example 40, 1-(2,6-Dimethoxybenzyl)-4-(3,4-dimethylphenyl)-1H-imidazole-2-ylamine hydrochloride], the Ki is less than 600 nM.
Turning to `COc1ccccc1Cn1c(Cc2ccccc2)cnc1N` [Example 41, 5-Benzyl-1-(2-methoxybenzyl)-1H-imidazole-2-ylamine], the Ki was less than 600 nM.
Turning to `COc1ccccc1Cn1cc(-c2cc3ccccc3o2)nc1N` [Example 42, 4-Benzofuran-2-yl-1-(2-methoxybenzyl)-1H-imidazole-2-ylamine], the inhibition constant (Ki) is less than 600 nM.
The same measure for `COc1ccccc1Cn1cc(-c2cccc3ccccc23)nc1N` [Example 43, 1-(2-Methoxybenzyl)-4-naphthalene-1-yl-1H-imidazole-2-ylamine]: less than 600 nM; for `COc1ccccc1Cn1cc(-c2ccc(Oc3ccccc3)cc2)nc1N` [Example 44, 1-(2-Methoxybenzyl)-4-(4-phenoxyphenyl)-1H-imidazole-2-ylamine hydrochloride]: less than 600 nM; for `COc1ccccc1Cn1cc(-c2cccc([N+](=O)[O-])c2)nc1N` [Example 45, 1-(2-Methoxybenzyl)-4-(3-nitrophenyl)-1H-imidazole-2-ylamine]: less than 600 nM.
For `COc1ccccc1Cn1cc(-c2ccc(OC(F)F)cc2)nc1N` [Example 46, 4-(4-Difluoromethoxyphenyl)-1-(2-methoxybenzyl)-1H-imidazole-2-ylamine], the inhibition constant (Ki) was less than 600 nM.
Take `COc1ccccc1Cn1cc(-c2csc(-c3ccccc3)n2)nc1N` [Example 47, 1-(2-Methoxybenzyl)-4-(2-phenylthiazole-4-yl)-1H-imidazole-2-ylamine]: the Ki is less than 600 nM.
In the case of `COc1ccccc1Cn1cc(-c2ccc(OCc3ccccc3)cc2)nc1N` [Example 48, 4-(4-Benzyloxyphenyl)-1-(2-methoxybenzyl)-1H-imidazole-2-ylamine], the Ki was less than 600 nM.
As for `COc1ccccc1Cn1cc(-c2nccs2)nc1N` [Example 49, 1-(2-Methoxybenzyl)-4-thiazole-2-yl-1H-imidazole-2-ylamine hydrochloride], the Ki is less than 600 nM.
With `COc1ccccc1Cn1cc(-c2ccc(C#N)s2)nc1N` [Example 50, 5-[2-Amino-1-(2-methoxybenzyl)-1H-imidazole-4-yl]thiophene-2-carbonitrile], the inhibition constant Ki is less than 600 nM.
Take `COc1ccccc1Cn1cc(-c2cccc(N)c2)nc1N` [Example 51, 4-(3-Aminophenyl)-1-(2-methoxybenzyl)-1H-imidazole-2-ylamine]: the Ki is less than 600 nM.
With `COc1cccc(OC)c1Cn1cc(-c2cc(C)cs2)nc1N` [Example 52, 1-(2,6-Dimethoxybenzyl)-4-(4-methylthiophene-2-yl)-1H-imidazole-2-ylamine], the inhibition constant Ki was less than 600 nM.
With `COc1ccccc1Cn1cc(-c2ccc(N)cc2)nc1N` [Example 53, 4-(4-Aminophenyl)-1-(2-methoxybenzyl)-1H-imidazole-2-ylamine hydrochloride], the inhibitory constant (Ki) was less than 600 nM.
Under `COc1cc([N+](=O)[O-])ccc1Cn1cc(-c2ccc(C#N)cc2)nc1N` [Example 54, 4-[2-Amino-1-(2-methoxy-4-nitrobenzyl)-1H-imidazole-4-yl]benzonitrile] stands more than 600 nM; under `COc1ccccc1Cn1cc(-c2cccc(NS(=O)(=O)c3ccc(C(C)C)cc3)c2)nc1N` [Example 55, N-{3-[2-Amino-1-(2-methoxybenzyl)-1H-imidazole-4-yl]phenyl}-4-isopropylbenzenesulfonamide], less than 600 nM; under `COc1ccccc1Cn1cc(-c2cccc(NS(=O)(=O)c3ccccc3)c2)nc1N` [Example 56, N-{3-[2-Amino-1-(2-methoxybenzyl)-1H-imidazole-4-yl]phenyl}benzenesulfonamide], less than 600 nM.
As for `COc1ccccc1Cn1cc(-c2cccc(NS(C)(=O)=O)c2)nc1N` [Example 57, N-{3-[2-Amino-1-(2-methoxybenzyl)-1H-imidazole-4-yl]phenyl}methanesulfonamide], the inhibitory constant (Ki) is less than 600 nM.
Consider `COc1ccccc1Cn1cc(-c2cccc(NC(=O)c3ccccc3)c2)nc1N` [Example 58, N-{3-[2-Amino-1-(2-methoxybenzyl)-1H-imidazole-4-yl]phenyl}benzamide], for which the inhibition constant Ki was less than 600 nM.
As to `COc1ccccc1Cn1cc(-c2ccc(NS(=O)(=O)c3ccccc3)cc2)nc1N` [Example 59, N-{4-[2-Amino-1-(2-methoxybenzyl)-1H-imidazole-4-yl]phenyl}benzenesulfonamide], the inhibition constant Ki is less than 600 nM.
Consider `COc1ccccc1Cn1cc(-c2cccc(NS(=O)(=O)c3cccs3)c2)nc1N` [Example 60, Thiophene-2-sulfonic acid {3-[2-amino-1-(2-methoxybenzyl)-1H-imidazole-4-yl]phenyl}amide], for which the Ki is less than 600 nM.
Regarding `COc1ccccc1Cn1cc(-c2cccnc2)nc1N` [Example 61, 1-(2-Methoxybenzyl)-4-pyridine-3-yl-1H-imidazole-2-ylamine], the Ki is less than 600 nM.
With `COc1ccc(-c2nc(Cc3ccccc3OC)c(N)[nH]2)cc1` [Example 62, 5-(2-Methoxybenzyl)-2-(4-methoxyphenyl)-3H-imidazole-4-ylamine hydrochloride], the Ki was more than 600 nM.
On to `COc1ccccc1Cn1cc(-c2cccc(NS(=O)(=O)c3ccc(-c4ccccc4)cc3)c2)nc1N` [Example 63, Biphenyl-4-sulfonic acid {3-[2-amino-1-(2-methoxybenzyl)-1H-imidazole-4-yl]phenyl}amide], for which the Ki is less than 600 nM.
The same measure for `COc1ccccc1Cn1cc(-c2cccc(NS(=O)(=O)C(C)C)c2)nc1N` [Example 64, Propane-2-sulfonic acid {3-[2-amino-1-(2-methoxybenzyl)-1H-imidazole-4-yl]phenyl}amide]: less than 600 nM.

These data come from patent publication US8921406B2, “5-ring heteroaromatic compounds and their use as binding partners for 5-HT5 receptors” (AbbVie Deutschland GmbH & Co. KG, priority 2005, dated 2014).
